One experiment deals with HCC1954 cells. The experiment is described as follows: Antiproliferation assay (Cell-titer Glo, 72 h). The experiment is classed as cell-based. The following applies: Homo sapiens, 72 h, means and standard deviations from three independent assays, read-out: HCC1954 (GI50/μM). Here is the method:
(§1) Breast-cancer cell lines (SK-Br3, HCC-1954) were purchased from Korea Cell Line Bank (Seoul, Korea) and were cultured in RPMI medium supplemented with 10% FBS and penicillin/streptomycin (Welgene, Seoul, Korea). All cell lines were maintained at 37 °C in a cell incubator in the presence of 5% CO2.
(§2) Breast-cancer cells in culture media (100 μL volume/well, 5000 SK-Br3 cells/well, 1000 HCC-1954 cells/well) were seeded in tissue culture-treated 96-well plates, and incubated at a cell incubator for 24 h. Serially diluted compounds (3-fold, 10 point from 10 mM, duplicated) were pre-plated and 500 nL of compound solutions were pin-transferred to the cells in the assay plates using pintool system (JANUS liquid handler, PerkinElmer, Waltham, MA, USA) and incubated at a cell incubator for 72 h. Cell-titer Glo^TM reagent (50 μL, Promega Corp., Madison, WI, USA) was added to each well, and the luminescence signal was read using an Envision^TM plate reader (PerkinElmer, Waltham, MA, USA). The titration curve fitting and IC50 values were generated using Prism 7.0 s/w (GraphPad, San Diego, CA, USA).

The next experiment has as its system SK-Br3 cells. As to the kind of experiment: Antiproliferation assay (Cell-titer Glo, 72 h). Type of experiment: cell-based. The following applies: Homo sapiens, SK-BR-3; 72 h; means and standard deviations from three independent assays; read-out: SK-Br3 (GI50/μM). As to the method:
as §1, §2

In the next experiment the target is CDK12/CyclinK (Homo sapiens, UniProt Q9NYV4). The experiment is described as follows: In vitro CDK12/cyclinK kinase assay. The experiment is classed as biochemical. Details: purchased Reaction Biology Corp. (CRO that ran the assay). Here is the method: In vitro CDK12/cyclinK assays for all compounds and in vitro kinome-wide inhibition profiling of 30d at 10 μM were performed by a CRO company (Reaction Biology Corp., San Diego, CA, USA).
CDK12/CyclinK, sequence (Q9NYV4 whole entry): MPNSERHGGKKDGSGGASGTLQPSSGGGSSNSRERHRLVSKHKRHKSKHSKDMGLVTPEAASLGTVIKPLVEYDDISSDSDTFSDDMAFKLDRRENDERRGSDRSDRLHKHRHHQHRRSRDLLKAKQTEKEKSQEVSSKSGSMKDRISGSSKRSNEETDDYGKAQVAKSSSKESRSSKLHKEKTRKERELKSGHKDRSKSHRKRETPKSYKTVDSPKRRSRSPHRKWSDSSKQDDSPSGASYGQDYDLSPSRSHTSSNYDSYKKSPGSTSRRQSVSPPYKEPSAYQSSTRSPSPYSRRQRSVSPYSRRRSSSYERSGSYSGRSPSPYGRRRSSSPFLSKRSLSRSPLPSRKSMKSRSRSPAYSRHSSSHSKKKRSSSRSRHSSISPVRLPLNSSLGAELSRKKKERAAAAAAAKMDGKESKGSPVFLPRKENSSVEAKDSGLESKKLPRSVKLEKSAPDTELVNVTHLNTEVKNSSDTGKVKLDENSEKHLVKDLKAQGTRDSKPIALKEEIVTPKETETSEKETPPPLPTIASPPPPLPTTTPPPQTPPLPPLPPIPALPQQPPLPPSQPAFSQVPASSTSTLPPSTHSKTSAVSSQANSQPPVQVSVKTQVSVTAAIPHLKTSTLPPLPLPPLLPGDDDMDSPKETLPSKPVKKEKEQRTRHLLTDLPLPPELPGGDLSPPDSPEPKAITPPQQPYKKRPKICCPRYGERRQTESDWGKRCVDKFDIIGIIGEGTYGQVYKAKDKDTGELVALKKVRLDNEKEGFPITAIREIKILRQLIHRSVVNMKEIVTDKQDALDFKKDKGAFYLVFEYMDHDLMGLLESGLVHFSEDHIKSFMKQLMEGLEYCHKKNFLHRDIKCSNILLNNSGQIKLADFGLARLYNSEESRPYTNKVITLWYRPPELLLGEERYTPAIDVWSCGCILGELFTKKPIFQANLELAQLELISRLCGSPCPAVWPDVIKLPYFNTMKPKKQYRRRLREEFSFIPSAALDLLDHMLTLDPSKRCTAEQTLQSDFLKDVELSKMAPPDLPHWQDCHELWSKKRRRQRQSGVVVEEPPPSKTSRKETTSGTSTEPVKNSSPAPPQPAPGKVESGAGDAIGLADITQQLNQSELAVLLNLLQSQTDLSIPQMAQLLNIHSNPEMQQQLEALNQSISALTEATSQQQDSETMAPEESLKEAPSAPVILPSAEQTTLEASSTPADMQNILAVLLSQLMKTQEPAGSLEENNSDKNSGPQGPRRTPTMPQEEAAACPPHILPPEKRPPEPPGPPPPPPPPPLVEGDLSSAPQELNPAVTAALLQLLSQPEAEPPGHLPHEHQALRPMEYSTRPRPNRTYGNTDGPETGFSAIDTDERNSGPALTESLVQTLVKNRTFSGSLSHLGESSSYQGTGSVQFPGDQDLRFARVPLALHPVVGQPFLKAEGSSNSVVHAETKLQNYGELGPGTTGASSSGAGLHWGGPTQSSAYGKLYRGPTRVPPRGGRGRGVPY
CDK12/CyclinK, sequence (O75909 whole entry partner): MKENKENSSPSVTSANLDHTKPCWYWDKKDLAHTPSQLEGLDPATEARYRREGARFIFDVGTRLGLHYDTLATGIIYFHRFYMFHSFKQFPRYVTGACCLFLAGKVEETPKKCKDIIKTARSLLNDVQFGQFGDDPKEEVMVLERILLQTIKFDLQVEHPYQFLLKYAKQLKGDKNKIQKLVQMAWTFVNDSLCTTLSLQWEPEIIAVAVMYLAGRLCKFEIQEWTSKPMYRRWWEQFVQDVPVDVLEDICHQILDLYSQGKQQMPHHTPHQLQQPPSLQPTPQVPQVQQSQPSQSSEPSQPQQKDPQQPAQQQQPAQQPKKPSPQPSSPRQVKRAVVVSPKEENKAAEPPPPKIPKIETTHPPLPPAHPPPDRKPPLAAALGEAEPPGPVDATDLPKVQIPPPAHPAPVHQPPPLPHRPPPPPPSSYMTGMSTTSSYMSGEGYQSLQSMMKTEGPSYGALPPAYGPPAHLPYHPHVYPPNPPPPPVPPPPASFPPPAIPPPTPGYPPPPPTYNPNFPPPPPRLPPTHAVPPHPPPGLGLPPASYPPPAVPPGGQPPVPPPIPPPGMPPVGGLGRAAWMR

Where [1] appears, read: Tables 1-4, read-out: CDK12/CyclinK (IC50/μM).

Like-named read-outs stand apart in the source and are kept apart here. Some results are limits rather than exact numbers.

25 compounds from publication PMC9506414, “Novel 2,6,9-Trisubstituted Purines as Potent CDK Inhibitors Alleviating Trastuzumab-Resistance of HER2-Positive Breast Cancers” (Pharmaceuticals, 2022) can be followed below.

As for `CC(C)n1cnc2c(NCc3ccc(-c4cccnc4)nc3)nc(-c3ccc4[nH]ncc4c3)nc21` [Compound 18f, N-([2,3′-Bipyridin]-5-ylmethyl)-2-(1H-indazol-5-yl)-9-isopropyl-9H-purin-6-amine], the GI50 with HCC1954 cells was determined as 1.86 ± 0.148 µM; in the experiment on SK-Br3 cells it was 2.58 ± 0.167 µM. Further, the IC50 at CDK12/CyclinK (setting [1]) was determined as 0.104 µM.

Regarding `CN(C)C/C=C/C(=O)Nc1ccc(C(=O)N2CCC[C@@H](Nc3ncc(Cl)c(-c4c[nH]c5ccccc45)n3)C2)cc1` [THZ531, reference compound], the GI50 came out at 0.195 ± 0.05 µM with HCC1954 cells and 0.03 ± 0.006 µM in the experiment with SK-Br3 cells. Besides, the IC50 at CDK12/CyclinK (Table 5, means and standard deviations from three independent assays, read-out: CDK12/CyclinK (IC50/μM)) is 0.051 ± 0.007 µM.

With `CC(C)n1cnc2c(NCc3ccc(-c4cccnc4)nc3)nc(-c3cccc(N)c3)nc21` [Compound 19b, N-([2,3′-Bipyridin]-5-ylmethyl)-2-(3-aminophenyl)-9-isopropyl-9H-purin-6-amine], the GI50 stood at 0.341 ± 0.059 µM in the experiment on HCC1954 cells and 0.614 ± 0.055 µM with SK-Br3 cells. The IC50 on CDK12/CyclinK (setting [1]) was 0.17 µM.

As for `CC(C)n1cnc2c(NCc3ccc(-c4cccnc4)nc3)nc(-n3cc(CCO)nn3)nc21` [Compound 26b, 2-(1-(6-(([2,3′-Bipyridin]-5-ylmethyl)amino)-9-isopropyl-9H-purin-2-yl)-1H-1,2,3-triazol-4-yl)ethan-1-ol], the GI50 amounted to 6.16 ± 0.429 µM in the experiment with HCC1954 cells and 8.3 ± 0.882 µM in the experiment with SK-Br3 cells. In addition, the IC50 on CDK12/CyclinK (setting [1]) turned out to be 0.539 µM.

As for `CC(C)n1cnc2c(NCc3ccc(-c4cccnc4)nc3)nc(-n3cc(CO)nn3)nc21` [Compound 26a, (1-(6-(([2,3′-Bipyridin]-5-ylmethyl)amino)-9-isopropyl-9H-purin-2-yl)-1H-1,2,3-triazol-4-yl)methanol], the GI50 with HCC1954 cells came to 9.97 ± 1.86 µM; in the experiment with SK-Br3 cells, 13.3 ± 3.15 µM. The IC50 on CDK12/CyclinK (setting [1]) amounted to 2.05 µM.

In the case of `Cc1ccc(-c2ccc(CNc3nc(-c4cccnc4)nc4c3ncn4C(C)C)nc2)cn1` [Compound 17c, 9-Isopropyl-N-((6′-methyl-[3,3′-bipyridin]-6-yl)methyl)-2-(pyridin-3-yl)-9H-purin-6-amine], the GI50 in the experiment on HCC1954 cells is 13.6 ± 1.16 µM; in the experiment on SK-Br3 cells, 24.6 ± 4.99 µM. Besides, the IC50 at CDK12/CyclinK (setting [1]) was determined as 1.11 µM.

For `CC(C)n1cnc2c(NCc3ccc(-c4cccnc4)nc3)nc(-c3ccc(C(N)=O)cc3)nc21` [Compound 18c, 4-(6-(([2,3′-Bipyridin]-5-ylmethyl)amino)-9-isopropyl-9H-purin-2-yl)benzamide], the GI50 was found to be 3.14 ± 0.201 µM with HCC1954 cells and 3.71 ± 0.45 µM in the experiment on SK-Br3 cells. Further, the IC50 on CDK12/CyclinK (setting [1]) is 0.484 µM.

Take `CC(C)n1cnc2c(NCc3ccc(-c4cccnc4)nc3)nc(-c3cccc(C(N)=O)c3)nc21` [Compound 18b, 3-(6-(([2,3′-Bipyridin]-5-ylmethyl)amino)-9-isopropyl-9H-purin-2-yl)benzamide]: the GI50 with HCC1954 cells was found to be 1.14 ± 0.304 µM; with SK-Br3 cells, 1.62 ± 0.248 µM. Also, the IC50 at CDK12/CyclinK (setting [1]) was determined as 0.504 µM.

Turning to `CC(C)n1cnc2c(NCc3ccc(-c4cccnc4)nc3)nc(-c3ccnc(NCCCO)c3)nc21` [Compound 22d, 3-((4-(6-(([2,3′-Bipyridin]-5-ylmethyl)amino)-9-isopropyl-9H-purin-2-yl)pyridin-2-yl)amino)propan-1-ol], the values for the GI50 with HCC1954 cells and in the experiment with SK-Br3 cells were 0.387 ± 0.037 µM and 0.48 ± 0.026 µM, respectively. Moreover, the IC50 at CDK12/CyclinK (setting [1]) stood at 0.113 µM.

Take `CC(C)n1cnc2c(NCc3ccc(-c4cccnc4)nc3)nc(-c3ccc4[nH]ccc4c3)nc21` [Compound 18d, N-([2,3′-Bipyridin]-5-ylmethyl)-2-(1H-indol-5-yl)-9-isopropyl-9H-purin-6-amine]: the figures for the GI50 in the experiment on HCC1954 cells and in the experiment on SK-Br3 cells were 1.35 ± 0.243 µM and 1.5 ± 0.112 µM, respectively. Further, the IC50 at CDK12/CyclinK (setting [1]) came to 0.155 µM.

Regarding `CC(C)n1cnc2c(NCc3ccc(-c4cccnc4)nc3)nc(-c3cccc(NCCCO)c3)nc21` [Compound 20c, 3-((3-(6-(([2,3′-Bipyridin]-5-ylmethyl)amino)-9-isopropyl-9H-purin-2-yl)phenyl)amino)propan-1-ol], the GI50 in the experiment with HCC1954 cells came to 0.502 ± 0.025 µM; with SK-Br3 cells, 0.732 ± 0.177 µM. The IC50 on CDK12/CyclinK (setting [1]) turned out to be 0.257 µM.

Take `CC(C)n1cnc2c(NCc3ccc(-c4cccnc4)nc3)nc(-c3ccccc3NCCCO)nc21` [Compound 20b, 3-((2-(6-(([2,3′-Bipyridin]-5-ylmethyl)amino)-9-isopropyl-9H-purin-2-yl)phenyl)amino)propan-1-ol]: the values for the GI50 in the experiment with HCC1954 cells and with SK-Br3 cells were 6.05 ± 0.351 µM and 11.2 ± 1.12 µM, respectively. Besides, the IC50 at CDK12/CyclinK (setting [1]) came to 3.01 µM.

As for `CCn1cnc2c(NCc3ccc(-c4cccnc4)nc3)nc(-c3cccnc3)nc21` [Compound 28a, N-([2,3′-Bipyridin]-5-ylmethyl)-9-ethyl-2-(pyridin-3-yl)-9H-purin-6-amine], the figures for the GI50 in the experiment on HCC1954 cells and with SK-Br3 cells were 0.142 ± 0.014 µM and 0.215 ± 0.053 µM, respectively. The IC50 on CDK12/CyclinK (setting [1]) is 0.016 µM; at CDK12/CyclinK (read-out: CDK12/cyclinK IC50), < 0.03 µM.

Turning to `CC(C)n1cnc2c(NCc3ccc(-c4cccnc4)nc3)nc(-c3ccc(NCCO)nc3)nc21` [Compound 22a, 2-((5-(6-(([2,3′-Bipyridin]-5-ylmethyl)amino)-9-isopropyl-9H-purin-2-yl)pyridin-2-yl)amino)ethan-1-ol], the GI50 amounted to 0.174 ± 0.019 µM with HCC1954 cells and 0.262 ± 0.021 µM with SK-Br3 cells. In addition, the IC50 at CDK12/CyclinK (setting [1]) was found to be 0.053 µM.

For the compound `CC(C)n1cnc2c(NCc3ccc(-c4cccnc4)nc3)nc(-c3ccc(N)cc3)nc21` [Compound 19c, N-([2,3′-Bipyridin]-5-ylmethyl)-2-(4-aminophenyl)-9-isopropyl-9H-purin-6-amine], the GI50 in the experiment on HCC1954 cells turned out to be 0.497 ± 0.088 µM; with SK-Br3 cells, 0.795 ± 0.063 µM. In addition, the IC50 at CDK12/CyclinK (setting [1]) was 0.15 µM.

Take `CC(C)n1cnc2c(NCc3ccc(-c4cccnc4)nc3)nc(-c3cncnc3)nc21` [Compound 18k, N-([2,3′-Bipyridin]-5-ylmethyl)-9-isopropyl-2-(pyrimidin-5-yl)-9H-purin-6-amine]: the GI50 was 0.31 ± 0.041 µM in the experiment with HCC1954 cells and 0.318 ± 0.149 µM in the experiment with SK-Br3 cells. Moreover, the IC50 on CDK12/CyclinK (setting [1]) is 0.051 µM; on CDK12/CyclinK (read-out: CDK12/cyclinK IC50), < 0.1 µM.

With `c1cncc(-c2ccc(CNc3nc(-c4cccnc4)nc4c3ncn4C3CCCC3)cn2)c1` [Compound 28b, N-([2,3′-Bipyridin]-5-ylmethyl)-9-cyclopentyl-2-(pyridin-3-yl)-9H-purin-6-amine], the GI50 with HCC1954 cells was 2.14 ± 0.176 µM; in the experiment with SK-Br3 cells it was 2.6 ± 0.31 µM. Moreover, the IC50 on CDK12/CyclinK (setting [1]) is 0.293 µM.

`CC(C)n1cnc2c(NCc3ccc(-c4cccnc4)nc3)nc(-c3cn[nH]c3)nc21` [Compound 18n, N-([2,3′-Bipyridin]-5-ylmethyl)-9-isopropyl-2-(1H-pyrazol-4-yl)-9H-purin-6-amine]: the figures for the GI50 with HCC1954 cells and in the experiment on SK-Br3 cells were 1.17 ± 0.027 µM and 1.99 ± 0.12 µM, respectively. Further, the IC50 at CDK12/CyclinK (setting [1]) turned out to be 1.43 µM.

Regarding `CC(C)n1cnc2c(NCc3ccc(-c4cccnc4)nc3)nc(-c3ccc(F)nc3)nc21` [Compound 21a, N-([2,3′-Bipyridin]-5-ylmethyl)-2-(6-fluoropyridin-3-yl)-9-isopropyl-9H-purin-6-amine], the GI50 was 1.33 ± 0.393 µM in the experiment with HCC1954 cells and 1.7 ± 0.165 µM in the experiment on SK-Br3 cells. Besides, at CDK12/CyclinK (setting [1]), the IC50 worked out at 0.147 µM.

As for `CC(C)n1cnc2c(NCc3ccc(-c4cccnc4)nc3)nc(-c3ccc4cn[nH]c4c3)nc21` [Compound 18e, N-([2,3′-Bipyridin]-5-ylmethyl)-2-(1H-indazol-6-yl)-9-isopropyl-9H-purin-6-amine], the GI50 turned out to be 0.399 ± 0.051 µM in the experiment on HCC1954 cells and 0.608 ± 0.115 µM with SK-Br3 cells. Besides, the IC50 at CDK12/CyclinK (setting [1]) came out at 0.179 µM.

For the compound `Cc1ccc(-c2nc(NCc3ccc(-c4cccnc4)nc3)c3ncn(C(C)C)c3n2)cn1` [Compound 18h, N-([2,3′-Bipyridin]-5-ylmethyl)-9-isopropyl-2-(6-methylpyridin-3-yl)-9H-purin-6-amine], the GI50 in the experiment with HCC1954 cells was determined as 0.942 ± 0.125 µM; in the experiment with SK-Br3 cells, 1.27 ± 0.33 µM. Moreover, the IC50 at CDK12/CyclinK (setting [1]) is 0.09 µM.

For `CC(C)n1cnc2c(NCc3ccc(-c4cccnc4)nc3)nc(-c3ccn[nH]3)nc21` [Compound 18m, N-([2,3′-Bipyridin]-5-ylmethyl)-9-isopropyl-2-(1H-pyrazol-5-yl)-9H-purin-6-amine], the values for the GI50 in the experiment with HCC1954 cells and in the experiment on SK-Br3 cells were 1.13 ± 0.05 µM and 1.72 ± 0.336 µM, respectively. Besides, on CDK12/CyclinK (setting [1]), the IC50 was 0.501 µM.

Turning to `CC(C)n1cnc2c(NCc3ccc(-c4cccnc4)nc3)nc(-c3ccccc3)nc21` [Compound 18a, N-([2,3′-Bipyridin]-5-ylmethyl)-9-isopropyl-2-phenyl-9H-purin-6-amine], the values for the GI50 in the experiment on HCC1954 cells and with SK-Br3 cells were 1.12 ± 0.26 µM and 1.69 ± 0.243 µM, respectively. Further, at CDK12/CyclinK (setting [1]), the IC50 worked out at 0.623 µM.

In the case of `CC(C)n1cnc2c(NCc3ccc(-c4cccnc4)nc3)nc(-c3ccnc(NCCO)c3)nc21` [Compound 22c, 2-((4-(6-(([2,3′-Bipyridin]-5-ylmethyl)amino)-9-isopropyl-9H-purin-2-yl)pyridin-2-yl)amino)ethan-1-ol], the GI50 in the experiment on HCC1954 cells turned out to be 0.433 ± 0.052 µM; with SK-Br3 cells it was 0.473 ± 0.087 µM. The IC50 on CDK12/CyclinK (setting [1]) stood at 0.086 µM.

Regarding `CC(C)n1cnc2c(NCc3ccc(-c4cccnc4)nc3)nc(-c3ccc(N)nc3)nc21` [Compound 18i, N-([2,3′-Bipyridin]-5-ylmethyl)-2-(6-aminopyridin-3-yl)-9-isopropyl-9H-purin-6-amine], the GI50 in the experiment on HCC1954 cells was determined as 0.278 ± 0.007 µM; with SK-Br3 cells it was 0.376 ± 0.067 µM. Besides, the IC50 is 0.065 µM at CDK12/CyclinK (setting [1]) and < 0.1 µM at CDK12/CyclinK (read-out: CDK12/cyclinK IC50).
